# Data from US9174964B2, “AMPK-activating piperidinyloxy-substituted 2,3-dihydro-1H-indene-1-amine compounds and pharmaceutical compositions including the same” (Rigel Pharmaceuticals, Inc., priority 2007, dated 2015).
# Structures can show the parent of a compound that is named as a salt.
# Biological target: AMPK
# Test: AMPK activation, enzyme-linked immunosorbent assay
# Format: biochemical
# Conditions: Table 2, AMPK activation, ELISA
row,SMILES,EC50
1,"O=C(NCCCNCc1ccncc1)c1ccc(OC2CCN(c3ccc(C(F)(F)F)cc3)CC2)cn1 [Compound 50, N-(3-(pyridin-4-ylmethylamino)propyl)-5-(1-(4-(trifluoromethyl)phenyl)piperidin-4-yloxy)picolinamide]",1000 to 5000 nM
2,"O=C(NC1CN(Cc2ccncc2)C1)c1ccc(OC2CCN(c3ccc(C(F)(F)F)cc3)CC2)cn1 [Compound 42, N-(1-(pyridin-4-ylmethyl)azetidin-3-yl)-5-(1-(4-(trifluoromethyl)phenyl)piperidin-4-yloxy)picolinamide]",1000 to 5000 nM
3,"O=C(N[C@@H]1CCN(Cc2ccncc2)C1)c1ccc(OC2CCN(c3ccc(C(F)(F)F)cc3)CC2)cn1 [Compound 25, (R)-N-(1-(pyridin-4-ylmethyl)pyrrolidin-3-yl)-5-(1-(4-(trifluoromethyl)phenyl)piperidin-4-yloxy)picolinamide]",100 to 500 nM
4,"O=C(NC1CCN(CCc2ccccc2)CC1)c1ccc(OC2CCN(c3ccc(C(F)(F)F)cc3)CC2)cn1 [Compound 36, N-(1-phenethylpiperidin-4-yl)-5-(1-(4-(trifluoromethyl)phenyl)piperidin-4-yloxy)picolinamide]",500 to 1000 nM
5,"CC(C)(C)OC(=O)N1CC[C@@H](NC(=O)c2ccc(OC3CCN(c4ccc(C(F)(F)F)cc4)CC3)cn2)C1 [Compound 23, (R)-tert-butyl 3-(5-(1-(4-(trifluoromethyl)phenyl)piperidin-4-yloxy)picolinamido) pyrrolidine-1-carboxylate]",100 to 500 nM

# Results, then the compound that gave them:
row,EC50,SMILES
1,100 to 500 nM,"N#Cc1ccc(CN2CC(NC(=O)c3ccc(OC4CCN(c5ccc(C(F)(F)F)cc5)CC4)cn3)C2)cc1 [Compound 41, N-(1-(4-cyanobenzyl)azetidin-3-yl)-5-(1-(4-(trifluoromethyl)phenyl)piperidin-4-yloxy)picolinamide]"
2,1000 to 5000 nM,"O=C(NC1CCN(Cc2c[nH]cn2)CC1)c1ccc(OC2CCN(c3ccc(C(F)(F)F)cc3)CC2)cn1 [Compound 48, N-(1-((1H-imidazol-4-yl)methyl)piperidin-4-yl)-5-(1-(4-(trifluoromethyl)phenyl)piperidin-4-yloxy)picolinamide]"
3,< 100 nM,"N#Cc1ccc(CN2CCC(NC(=O)c3ccc(OC4CCN(c5ccc(C#N)cc5)CC4)cn3)CC2)cc1 [Compound 2, N-(1-(4-cyanobenzyl)piperidin-4-yl)-5-(1-(4-cyanophenyl)piperidin-4-yloxy)picolinamide]"
4,< 100 nM,"N#Cc1ccc(CN2CCC(NC(=O)c3ccc(OC4CCN(c5ccc(C(F)(F)F)cc5)CC4)cn3)CC2)cc1 [Compound 4, N-(1-(4-cyanobenzyl)piperidin-4-yl)-5-(1-(4-(trifluoromethyl)phenyl)piperidin-4-yloxy)picolinamide]"
5,< 100 nM,"O=C(NC1CCN(Cc2cccnc2)CC1)c1cncc(OC2CCN(c3ccc(C(F)(F)F)cc3)CC2)c1 [Compound 18, N-(1-(pyridin-3-ylmethyl)piperidin-4-yl)-5-(1-(4-(trifluoromethyl)phenyl)piperidin-4-yloxy)nicotinamide]"
6,1000 to 5000 nM,"O=C(NC1CCNCC1)c1ccnc(OC2CCN(c3ccc(C(F)(F)F)cc3)CC2)c1 [Compound 19, N-(piperidin-4-yl)-2-(1-(4-(trifluoromethyl)phenyl)piperidin-4-yloxy)isonicotinamide]"

# Same assay, conditions: Table 4, AMPK activation, ELISA
row,SMILES,EC50
1,"CN(C(=O)c1cc2cc(OC3CCN(c4ccc(C(F)(F)F)cc4)CC3)ccc2o1)C1CCN(Cc2ccc(C(F)(F)F)cc2)CC1 [Compound 119, N-methyl-N-(1-(4-(trifluoromethyl)benzyl)piperidin-4-yl)-5-(1-(4-(trifluoromethyl)phenyl)piperidin-4-yloxy)benzofuran-2-carboxamide]",< 100 nM
2,"O=C(NC1CCN(C(=O)c2ccncc2)CC1)c1cc2cc(OC3CCN(c4ccc(C(F)(F)F)cc4)CC3)ccc2o1 [Compound 115, N-(1-isonicotinoylpiperidin-4-yl)-5-(1-(4-(trifluoromethyl)phenyl)piperidin-4-yloxy)benzofuran-2-carboxamide]",< 100 nM
3,"CC(C)(C)OC(=O)N1CCC(NC(=O)c2cc3ccc(OC4CCN(c5ccc(C(F)(F)F)cc5)CC4)cc3o2)CC1 [Compound 82, tert-butyl 4-(6-(1-(4-(trifluoromethyl)phenyl)piperidin-4-yloxy)benzofuran-2-carboxamido)piperidine-1-carboxylate]",100 to 500 nM
4,"N#Cc1ccc(N2CCC(Oc3ccc4oc(C(=O)NC5CCN(Cc6ccccc6)CC5)cc4c3)CC2)cc1 [Compound 71, N-(1-benzylpiperidin-4-yl)-5-(1-(4-cyanophenyl)piperidin-4-yloxy)benzofuran-2-carboxamide formate salt]",< 100 nM
5,"O=C(NC1CCN(Cc2ccncc2)CC1)c1cc2cc(OC3CCN(c4ccc(C(F)(F)F)cc4)CC3)ccc2o1 [Compound 76, N-(1-(pyridin-4-ylmethyl)piperidin-4-yl)-5-(1-(4-(trifluoromethyl)phenyl)piperidin-4-yloxy)benzofuran-2-carboxamide]",100 to 500 nM
6,"O=C(NC1CCN(Cc2ccc(F)cc2)CC1)c1cc2ccc(OC3CCN(c4ccc(C(F)(F)F)cc4)CC3)cc2o1 [Compound 91, N-(1-(4-fluorobenzyl)piperidin-4-yl)-6-(1-(4-(trifluoromethyl)phenyl)piperidin-4-yloxy)benzofuran-2-carboxamide]",> 50000 nM
7,"Cc1c(C(=O)NC2CCN(Cc3ccccc3C#N)CC2)oc2cc(OC3CCN(c4ccc(C(F)(F)F)cc4)CC3)ccc12 [Compound 67, N-(1-(2-cyanobenzyl)piperidin-4-yl)-3-methyl-6-(1-(4-(trifluoromethyl)phenyl)piperidin-4-yloxy)benzofuran-2-carboxamide]",< 100 nM
8,"O=C(N[C@H]1CCN(Cc2cccnc2)C1)c1cc2cc(OC3CCN(Cc4ccc(Cl)cc4)CC3)ccc2o1 [Compound 130, (S)-5-(1-(4-chlorobenzyl)piperidin-4-yloxy)-N-(1-(pyridin-3-ylmethyl)pyrrolidin-3-yl)benzofuran-2-carboxamide]",1000 to 10000 nM
9,"O=C(NC1CCN(Cc2cccnc2)CC1)c1cc2ccc(OC3CCN(c4ccc(OC(F)(F)F)cc4)CC3)cc2o1 [Compound 95, N-(1-(pyridin-3-ylmethyl)piperidin-4-yl)-6-(1-(4-(trifluoromethoxy)phenyl)piperidin-4-yloxy)benzofuran-2-carboxamide]",< 100 nM

# Further lines, results first:
row,EC50,SMILES
1,< 100 nM,"O=C(NC1CCN(Cc2cccnc2)CC1)c1cc2cc(OC3CCN(c4ccc(C(F)(F)F)cc4)CC3)ccc2o1 [Compound 101, N-(1-(pyridin-3-ylmethyl)piperidin-4-yl)-5-(1-(4-(trifluoromethyl)phenyl)piperidin-4-yloxy)benzofuran-2-carboxamide]"
2,100 to 500 nM,"Cc1c(C(=O)NC2CCN(C(=O)OC(C)(C)C)CC2)oc2cc(OC3CCN(c4ccc(C(F)(F)F)cc4)CC3)ccc12 [Compound 61, tert-butyl 4-(3-methyl-6-(1-(4-(trifluoromethyl)phenyl)piperidin-4-yloxy)benzofuran-2-carboxamido)piperidine-1-carboxylate]"
3,100 to 500 nM,"O=C(NC1CCN(S(=O)(=O)c2cccnc2)CC1)c1cc2ccc(OC3CCN(c4ccc(OC(F)(F)F)cc4)CC3)cc2o1 [Compound 108, N-(1-(pyridin-3-ylsulfonyl)piperidin-4-yl)-6-(1-(4-(trifluoromethoxy)phenyl)piperidin-4-yloxy)benzofuran-2-carboxamide]"
4,< 100 nM,"O=C(NC1CCN(Cc2ccccc2)CC1)c1cc2cc(OC3CCN(c4ccc(OC(F)(F)F)cc4)CC3)ccc2o1 [Compound 80, N-(1-benzylpiperidin-4-yl)-5-(1-(4-(trifluoromethoxy)phenyl)piperidin-4-yloxy)benzofuran-2-carboxamide trifluoroacetate salt]"
5,< 100 nM,"CN(C(=O)c1cc2cc(OC3CCN(c4ccc(C(F)(F)F)cc4)CC3)ccc2o1)C1CCN(Cc2ccccn2)CC1 [Compound 117, N-methyl-N-(1-(pyridin-2-ylmethyl)piperidin-4-yl)-5-(1-(4-(trifluoromethyl)phenyl)piperidin-4-yloxy)benzofuran-2-carboxamide]"
6,< 100 nM,"CN(C(=O)c1cc2cc(OC3CCN(c4ccc(C(F)(F)F)cc4)CC3)ccc2o1)C1CCN(Cc2cccnc2)CC1 [Compound 109, N-methyl-N-(1-(pyridin-3-ylmethyl)piperidin-4-yl)-5-(1-(4-(trifluoromethyl)phenyl)piperidin-4-yloxy)benzofuran-2-carboxamide]"
7,100 to 500 nM,"O=C(N[C@@H]1CCN(Cc2ccncc2)C1)c1cc2cc(OC3CCN(c4ccc(C(F)(F)F)cc4)CC3)ccc2o1 [Compound 122, (R)-N-(1-(pyridin-4-ylmethyl)pyrrolidin-3-yl)-5-(1-(4-(trifluoromethyl)phenyl)piperidin-4-yloxy)benzofuran-2-carboxamide]"
8,1000 to 10000 nM,"CN(C(=O)c1cc2cc(OC3CCN(c4ccc(C(F)(F)F)cc4)CC3)ccc2o1)C1CCNCC1 [Compound 103, N-methyl-N-(piperidin-4-yl)-5-(1-(4-(trifluoromethyl)phenyl)piperidin-4-yloxy)benzofuran-2-carboxamide]"
9,500 to 1000 nM,"CC(C)(C)OC(=O)N1CCC(NC(=O)c2cc3cc(OC4CCN(c5ccc(C(F)(F)F)cc5)CC4)ccc3o2)CC1 [Compound 85, tert-butyl 4-(5-(1-(4-(trifluoromethyl)phenyl)piperidin-4-yloxy)benzofuran-2-carboxamido)piperidine-1-carboxylate]"

# Same assay, conditions: Table 5, AMPK activation, ELISA
row,EC50,SMILES
1,100 to 500 nM,"O=C(NC1CCNCC1)c1cc2ccc(OC3CCN(c4ccc(C(F)(F)F)cc4)CC3)cc2s1 [Compound 141, N-(piperidin-4-yl)-6-(1-(4-(trifluoromethyl)phenyl)piperidin-4-yloxy)benzo[b]thiophene-2-carboxamide]"
2,< 100 nM,"O=C(NC1CCN(Cc2ccncc2)CC1)c1cc2cc(OC3CCN(c4ccc(OC(F)(F)F)cc4)CC3)ccc2s1 [Compound 137, N-(1-(pyridin-4-ylmethyl)piperidin-4-yl)-5-(1-(4-(trifluoromethoxy)phenyl)piperidin-4-yloxy)benzo[b]thiophene-2-carboxamide]"
3,< 100 nM,"O=C(NC1CCN(Cc2cccnc2)CC1)c1sc2cc(OC3CCN(c4ccc(C(F)(F)F)cc4)CC3)ccc2c1Cl [Compound 152, 3-chloro-N-(1-(pyridin-3-ylmethyl)piperidin-4-yl)-6-(1-(4-(trifluoromethyl)phenyl)piperidin-4-yloxy)benzo[b]thiophene-2-carboxamide]"
